≈ marks a conversion by molar mass, not a printed value.
How the values were obtained:
H. influenzae B0529 = experiment: microtiter broth serial dilution MIC, H. influenzae B0529; assay type: cell-based, Haemophilus influenzae; conditions: unit assumed
Excerpt: (§1) In particular, the compounds of the invention may be active against strains of Staphylococcus aureus, Streptococcus pneumoniae, Moraxella catarrhalis, Streptococcus pyogenes, or Haemophilus influenzae. […] (Table 1.)

S. pneumoniae B0326 M = experiment: microtiter broth serial dilution MIC, S. pneumoniae B0326 M; assay type: cell-based, Streptococcus pneumoniae; conditions: unit assumed
Excerpt: as §1

M. catarrhalis B0324 = experiment: microtiter broth serial dilution MIC, M. catarrhalis B0324; assay type: cell-based, Moraxella catarrhalis; conditions: unit assumed
Excerpt: as §1

S. pyogenes B0543 iMLS = experiment: microtiter broth serial dilution MIC, S. pyogenes B0543 iMLS; assay type: cell-based, Streptococcus pyogenes; conditions: S. pyogenes B0543 iMLS (inducible resistant strain); unit assumed
Excerpt: as §1

E. coli B0001 = experiment: microtiter broth serial dilution MIC, E. coli B0001; assay type: cell-based; conditions: unit assumed
Excerpt: as §1

S. pneumoniae B0541 = experiment: microtiter broth serial dilution MIC, S. pneumoniae B0541; assay type: cell-based, Streptococcus pneumoniae; conditions: unit assumed
Excerpt: as §1

S. pyogenes B0545 M = experiment: microtiter broth serial dilution MIC, S. pyogenes B0545 M; assay type: cell-based, Streptococcus pyogenes; conditions: S. pyogenes B0545 M (efflux resistant strain); unit assumed
Excerpt: as §1

S. aureus B0329 = experiment: microtiter broth serial dilution MIC, S. aureus B0329; assay type: cell-based, Staphylococcus aureus; conditions: unit assumed
Excerpt: as §1

S. pyogenes B0542 = experiment: microtiter broth serial dilution MIC, S. pyogenes B0542; assay type: cell-based, Streptococcus pyogenes; conditions: unit assumed
Excerpt: as §1

Molecule	MIC (H. influenzae B0529)	MIC (S. pneumoniae B0326 M)	MIC (M. catarrhalis B0324)	MIC (S. pyogenes B0543 iMLS)	MIC (E. coli B0001)	MIC (S. pneumoniae B0541)	MIC (S. pyogenes B0545 M)	MIC (S. aureus B0329)	MIC (S. pyogenes B0542)
CC[C@H]1OC(=O)[C@H](C)[C@@H](O[C@H]2C[C@@](C)(OC)[C@@H](O)[C@H](C)O2)[C@H](C)[C@@H](O[C@@H]2O[C@H](C)C[C@H](N(C)C)[C@H]2O)[C@](C)(O)C[C@@H](C)NC(=O)[C@H](C)[C@@H](OC)[C@]1(C)O [Ex. 5, 11-O-METHYL-8A-AZA-8A-HOMOERYTHROMYCIN]	1 µg/mL (≈ 1.31 µM)	32 µg/mL (≈ 41.9 µM)	0.125 µg/mL (≈ 0.164 µM)	4 µg/mL (≈ 5.24 µM)	16 µg/mL (≈ 21 µM)	0.125 µg/mL (≈ 0.164 µM)	16 µg/mL (≈ 21 µM)	0.5 µg/mL (≈ 0.655 µM)	0.125 µg/mL (≈ 0.164 µM)
8a-Aza-8a-homoerythromycin	1 µg/mL	64 µg/mL	2 µg/mL	8 µg/mL	16 µg/mL	0.125 µg/mL	32 µg/mL	2 µg/mL	0.25 µg/mL
CC[C@H]1OC(=O)[C@H](C)[C@@H](O[C@H]2C[C@@](C)(OC)[C@@H](O)[C@H](C)O2)[C@H](C)[C@@H](O[C@@H]2O[C@H](C)C[C@H](N(C)C)[C@H]2O)[C@](C)(O)C[C@@H](C)CN[C@H](C)[C@@H](O)[C@]1(C)O [9-Deoxo-9a-aza-9a-homoerythromycin]	0.5 µg/mL (≈ 0.68 µM)	16 µg/mL (≈ 21.8 µM)	1 µg/mL (≈ 1.36 µM)	32 µg/mL (≈ 43.5 µM)	4 µg/mL (≈ 5.44 µM)	0.25 µg/mL (≈ 0.34 µM)	16 µg/mL (≈ 21.8 µM)	4 µg/mL (≈ 5.44 µM)	0.125 µg/mL (≈ 0.17 µM)
CC[C@H]1OC(=O)[C@H](C)[C@@H](O[C@H]2C[C@@](C)(OC)[C@@H](O)[C@H](C)O2)[C@H](C)[C@@H](O[C@@H]2O[C@H](C)C[C@H](N(C)C)[C@H]2O)[C@](C)(O)C[C@@H](C)CN[C@H](C)[C@@H](OC)[C@]1(C)O [Ex. 3, 11-O-METHYL-9-DEOZO-9A-AZA-9A-HOMOERYTHROMYCIN]	0.5 µg/mL (≈ 0.668 µM)	8 µg/mL (≈ 10.7 µM)	0.125 µg/mL (≈ 0.167 µM)	16 µg/mL (≈ 21.4 µM)	2 µg/mL (≈ 2.67 µM)	0.125 µg/mL (≈ 0.167 µM)	4 µg/mL (≈ 5.34 µM)	1 µg/mL (≈ 1.34 µM)	0.125 µg/mL (≈ 0.167 µM)
